Test results from patent US20090099197A1 (priority 2005, published 2009).
Entries after “also recorded” stand apart in the source; their conditions may differ. Where two headings read alike, the source gives them in different places.

What was measured:
wild-type BCR-ABL = settings: cited from earlier work
[1] = system: imatinib-resistant BCR-ABL mutants; settings: cited from earlier work
[2] = system: K562/ADM (K562 cells over-expressing MDR-1); experiment: In vitro proliferation/cytotoxicity assay, MDR-1 overexpressing K562/ADM cells; assay type: cell-based, human; settings: for IC50: Homo sapiens
Experimental: Two cell lines were used: K562 (erythromyeloblastoid CML) and K562/ADM (K562 cells over-expressing MDR-1).
Experiments were performed as described in Example 1 except that K562/ADM cells were used.

[3] = system: K562 (erythromyeloblastoid CML) cells; experiment: cells; settings: Homo sapiens, K562, 72 h
[4] = system: K562/STI-571/R tumor xenografts; experiment: Tumor response in imatinib-resistant K562/STI-571/R xenograft model; assay type: in vivo, SCID mice
[5] = system: K562/ADM tumor xenografts; experiment: Tumor response in SC K562/ADM leukemia xenograft model; assay type: in vivo, mice; settings: QDx14
Experimental: (B) Activity versus K562/ADM tumor xenografts. Mice were implanted subcutaneously (SC) on Day 0 with K562/ADM. On Day 18 when tumors were at a size range of 100-200 mg, treatment began. […] Experiments were performed as described in Example 3.
Tumors implanted in mouse xenograft models were allowed to grow to a pre-determined size of 100-300 mg (tumors outside the range were excluded) and animals were evenly distributed to treatment and control groups. Treated animals were checked daily for treatment-related toxicity/mortality. […] The difference in body weight (Wt2−Wt1) provides a measure of treatment-related toxicity. Tumor weights (mg) were estimated from the formula: tumor weight=(length×width^2)/2.
Log cell kill was also used as a measure of anti-tumor activity according to the following equation: log cell kill=T−C/(3.32×TVDT). In this equation: T=mean tumor weight at the end of treatment for the treated group; C=mean tumor weight at the end of treatment for the control group; and TVDT=median time (days) for control tumor weight to reach target size−median time (days) for control tumor weight to reach half the target size.
A maximum tolerated dose (MTD), frequently equivalent to the optimal dose, was defined as a dose immediately below that causing unacceptable toxicity (i.e. more than one death) or, in the absence of any deaths, when accompanied by >20% loss of body weight.

[6] = system: K562 intracranial CML tumor model; experiment: Survival of mice bearing intracranial K562 CML; assay type: in vivo; settings: BIDx10
Experimental: Extramedullary complications, particular in the CNS, are known risks of Ph+ALL or Ph+CML in lymphoid blast crisis. […] Both drugs were administered orally to mice inoculated intracranially (IC) with K562 cells using a BID×10 treatment schedule.

in vivo = settings: SCID, mouse
Experimental: Concentrations and dosing frequency are as specified in FIG. 4A. […] Experiments were performed as described in Example 4.

intracranial K562 cells = experiment: Bioluminescence imaging of intracranially inoculated K562 cells; assay type: in vivo, SCID mice; settings: 15 mg/kg, 2qdx14, M-F, po
Experimental: Experiments were performed as described in Example 4.

[7] = system: K562 (erythromyeloblastoid CML) cells
[8] = system: K562-R (K562/STI-571/R) imatinib resistant cells
[9] = system: K562-R (K562/STI-571/R) imatinib resistant cells; experiment: cells; settings: Homo sapiens, K-562R
[10] = K562 cells, 72 hours incubation

Cc1cn(-c2cc(NC(=O)c3ccc(C)c(Nc4nccc(-c5cccnc5)n4)c3)cc(C(F)(F)F)c2)cn1 [AMN107]
imatinib-resistant BCR-ABL mutants/mutations against which active [1]: 32/33

COc1cccc2c1C(=O)c1c(O)c3c(c(O)c1C2=O)C[C@@](O)(C(=O)CO)C[C@@H]3O[C@H]1C[C@H](N)[C@H](O)[C@H](C)O1 [adriamycin]
IC50 ([2]; K562/ADM cells, read-out: IC50): 1250 nM
fold resistance (IC50 K562/ADM versus K562) ([2]; K562/ADM versus parent K562 cells): 60 fold
IC50 [3]: 21 nM

Cc1nc(Nc2ncc(C(=O)Nc3c(C)cccc3Cl)s2)cc(N2CCN(CCO)CC2)n1 [dasatinib, N-(2-chloro-6-methylphenyl)-2-[[6-[4-(2-hydroxyethyl)-1-piperazinyl]-2-methyl-4-pyrimidinyl]amino]-5-thiazolecarboxamide]
IC50 ([2]; K562, K562/ADM cells): ~3 nM
effect on tumor ([4]; dasatinib 5 mg/kg (lowest dose)): tumor regressed initially
effect on tumor size ([4]; dasatinib, all doses except the lowest tested (5 mg/kg)): substantial reductions in tumor size
anti-leukemic activity ([5]; 5 mg/kg PO): inactive
growth delay ([5]; 15 mg/kg PO, P=0.0009): 16.7 days
anti-leukemic activity ([5]; 30 mg/kg PO): completely eliminated tumors
increase in lifespan (ILS) ([6]; 5 mg/kg/adm oral): 268%
increase in lifespan (ILS) ([6]; 15 mg/kg/adm oral): 450%
Kp (in vivo): 0.05 to 0.1
bioluminescence of intracranial K562 cells after treatment (intracranial K562 cells): virtually no bioluminescence; also recorded: marked reduction of bioluminescence
IC50 [7, 10]: 0.5 nM
sensitivity of K562 cells (percent growth inhibition), comparison ([7]; dasatinib versus imatinib or AMN107, FIG. 1A): significantly more sensitive to dasatinib than either imatinib or AMN107
resistance factor (IC50 K562-R versus K562) [8]: 6 fold
IC50 [3, 10]: 0.7 nM
IC50 [9]: 4.4 nM

Cc1ccc(NC(=O)c2ccc(CN3CCN(C)CC3)cc2)cc1Nc1nccc(-c2cccnc2)n1 [imatinib, reference compound]
effect on tumors ([4]; imatinib 75 and 150 mg/kg three times daily): little or no impact
